Source: patent US20030105043A1, “Apoptosis-inducing ribozymes” (priority 2000, published 2003)

Columns and labels:
rat MT-I cRNA = assay: cell-free ribozyme cleavage of labeled rat MT-I cRNA; assay type: biochemical; details: for cleavage activity on rat MT-I cRNA: cell-free, excess unlabeled ribozyme, 37° C., 16 hours
From the text: (§1) Bluescript plasmids containing the rat MT cDNA (pBSMT-I and pBSMT-2) were constructed as described above. A plasmid containing the mouse MT-I (pSP-MT-I) and a second plasmid (SDF 102.C1) containing MT-II cDNA (Durnam et al., 1980, Proc. Natl. Acad. Sci. USA 77:6511-6515) were linearized with HindIII and in vitro transcribed into labeled MT cRNAs with [α-32P]UTP, T3 RNA polymerase (Promega, Madison, Wis.), and the Maxiscript In Vitro Transcription Kit (Ambion, Inc, Austin, Tex.). Ribozymes were generated as unlabeled molecules from pRz1-2 and pRz4-9 using either the T3 or T7 promoter of the pClneo vectors, and unlabeled nucleoside triphosphates.
(§2) To test ribozyme activity, radiolabeled rat metallothionein cRNAs were synthesized by in vitro transcription from linearized plasmids and incubated with an excess of unlabeled ribozymes at 37° C. for 16 hours. The enzymatic activity was terminated with an equal volume of stop buffer. After denaturing at 95° C. for 2 minutes, the cleavage products were separated in a 6% polyacrylamide/8M urea gel, dried and exposed to X-ray film to obtain autoradiograms. The uncut rat MT-I (poly A) and MT-II (poly A) molecules were 435 nucleotides and 350 nucleotides, respectively. Rz1-2-mediated cleavage fragments of rat MT-I(poly A) were 360 nucleotides and 115 nucleotides in length. The cleavage fragments produced by Rz4-9 activity on MT-II(polyA) were 260 nucleotides and 90 nucleotides in length.
(§3) Initial experiments were designed to determine effective and linear catalytic temperature ranges for Rz1-2 and Rz4-9. A ribozyme and a labeled substrate were mixed in a 1:1 molar ratio in a 10 μL reaction mixture composed of 40 mM Tris-HCl (pH 7.5) and 20 mM MgCl2 (previously determined to be optimal for cleavage activity). The reaction mixture was denatured for 2 minutes at 95° C. and then snapcooled on ice for 5 minutes. Catalytic reactions were conducted at 25° C., 37° C., and 50° C. for 1, 3, or 16 hours. […] An excess of unlabeled anti-MT Rzs (Rz1-2 and Rz4-9) and their corresponding mutants (Rz2-6 and Rz3-3) were mixed with labeled rat or mouse MT-I or MT-II cRNA and incubated at 37° C. for 16 hours. At the end of these experiments, all catalytic reactions were terminated with an equal volume of stop buffer (10 mM EDTA, 90% formamide, 0.1% bromophenol blue, and 0.1% xylene cyanol). After denaturing at 95° C. for 2 minutes, the cleavage products were separated in a 6% polyacrylamide/8M urea gel, dried, and exposed to X-ray film to obtain autoradiograms. The sizes of the uncut rat MT-I (poly A) and MT-II (poly A) molecules were 435 nucleotides and 350 nucleotides, respectively. Rz1-2-mediated cleavage fragments of rat MT-I(poly A) were of 360 nucleotides and 115 nucleotides in length and those produced by Rz4-9 activity on MT-II(polyA) were 260 nucleotides and 90 nucleotides. Incubation with the mutant Rzs, Rz2-6 or Rz3-3, produced no products.
(§4) Hammerhead ribozymes were tested for specific endonuclease activity under cell-free conditions. In vitro transcription from pBSMT-I and pBSMT-II using 2.5 μg HindIII linearized plasmid and T3 RNA polymerase yielded 5 μg of rat MT-I and MT-II cRNA. In parallel, mouse MT-I and MT-II cRNA were generated from plasmids containing mouse MT sequences (pSP-MT-I). These molecules containing the entire metallothionein coding region and a poly (A) tail 435 nucleotides (rat MT-I cRNA), 350 nucleotides (rat MT-II cRNA), 380 nucleotides ([…]) and 460 nucleotides ([…]) in length. They were used as substrate for the ribozyme reactions. […] Similar sequence specificity data were obtained for mouse metallothionein cRNAs. All cleavage products were of the predicted sizes.

rat MT-II cRNA = assay: cell-free ribozyme cleavage of labeled rat MT-II cRNA; assay type: biochemical; details: for cleavage activity on rat MT-II cRNA: cell-free, excess unlabeled ribozyme, 37° C., 16 hours
From the text: as §1, §2, §3, §4

[1] = cell-free cleavage, 1:1 molar ratio

Substance	cleavage activity on rat MT-I cRNA (rat MT-I cRNA)	optimal Mg^2+ for ribozyme activity (rat MT-II cRNA; cell-free cleavage) [mM]	period over which ribozyme remained active (rat MT-II cRNA; cell-free cleavage) [h]	temperature at which ribozyme is most effective (rat MT-II cRNA; cell-free cleavage) [°C]	temperature range over which ribozyme is active (rat MT-II cRNA; [1])	cleavage activity on rat MT-II cRNA (rat MT-II cRNA)	optimal Mg^2+ for ribozyme activity (rat MT-I cRNA; cell-free cleavage) [mM]	period over which ribozyme remained active (rat MT-I cRNA; cell-free cleavage) [h]	temperature at which ribozyme is most effective (rat MT-I cRNA; cell-free cleavage) [°C]	temperature range over which ribozyme is active (rat MT-I cRNA; [1])
Rz4-9: hammerhead ribozyme, SEQ ID NO:7, designed to cleave MT-II mRNA (CCUCUUUGCACUGAUGAGUCCGUGAGGACGAAAUGCAGCCCU; listed as RNA, chemistry not fully specified)	did not mediate rat MT-I cRNA cleavage	20	16	37	25-50 °C	cut only rat MT-II cRNAs				
Rz1-2: hammerhead ribozyme, SEQ ID NO:6, designed to cleave mouse and rat MT-I mRNA (GCGCCUUUGCACUGAUGAGUCCGUGAGGACGAAACACAGCCCU; listed as RNA, chemistry not given here)	active					no activity	20	16	37	25-50 °C
